From article PMC11134331, “Cell-active small molecule inhibitors validate the SNM1A DNA repair nuclease as a cancer target” (Chemical Science, 2024)

How the values were obtained:
[1] = molecular target: T1, SNM1A (Homo sapiens, UniProt Q6PJP8); test: real-time fluorescence-based nuclease assay, SNM1A; type: biochemical; design: DNA encoding for the MBL and β-CASP domains of SNM1A (aa 676–1040) was cloned into the baculovirus transfer vector pFB-LIC-Bse; inferred from vector pFB-LIC-Bse and the IMAC purification; made in house; host or cells: Sf9 insect cells (baculovirus); conditions: for IC50: read-out: SNM1A IC50
T1 sequence (Q6PJP8 676-1040): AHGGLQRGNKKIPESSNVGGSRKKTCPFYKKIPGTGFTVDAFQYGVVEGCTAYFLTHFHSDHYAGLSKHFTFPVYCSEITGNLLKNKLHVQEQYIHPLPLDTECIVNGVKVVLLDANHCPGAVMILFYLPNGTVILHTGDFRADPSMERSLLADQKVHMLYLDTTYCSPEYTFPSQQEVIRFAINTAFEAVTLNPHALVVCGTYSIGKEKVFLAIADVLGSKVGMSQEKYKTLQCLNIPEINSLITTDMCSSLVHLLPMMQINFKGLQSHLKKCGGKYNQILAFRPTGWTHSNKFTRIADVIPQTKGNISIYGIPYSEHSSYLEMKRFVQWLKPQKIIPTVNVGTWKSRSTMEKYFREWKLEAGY
Description: In brief, the fluorescence-based nuclease assay utilises a chemically modified 20-nucleotide ssDNA substrate with a fluorescein isothiocyanate (FITC) derived 5′-group and an internal black-hole-quencher-1 (BHQ-1), located eight nucleotides distal to the fluorescein group. In the intact substrate the BHQ-1 suppresses fluorescence, however, exonucleolytic digestion of the substrate from the 5′ end by SNM1A uncouples the BHQ-1 and FITC moieties (see Fig. 1D). Spectra were measured every 140 seconds with an increase in fluorescence indicating enzymatic activity by SNM1A (concentration: 0.1 nM).
(§1) Fluorescence-based nuclease digestion SNM1A–C assays were performed as described.[30,45] In the case of SNM1A and SNM1B, a 20-mer oligonucleotide with a 5′ FITC-conjugated-T and an internal BHQ-1 (black hole quencher) conjugated-T, eight nucleotides distal (3′) to the fluor was utilised; whereas for SNM1C a 20-mer oligonucleotide with a 5′ FITC-conjugated-T and a 3′ BHQ-1(black hole quencher) was used to capture all possible endonucleolytic incisions. Reactions (25 μL) were performed in 384 well microplates in nuclease buffer (20 mM HEPES-KOH pH 7.5, 50 mM KCl, 10 mM MgCl2, 0.5 mM TCEP, 0.05% (v/v) Triton-X, 0.1 mg mL^−1 BSA, 5% (v/v) glycerol) with SNM1A/B/C (0.1 nM SNM1A, 0.5 nM SNM1B and 1 nM SNM1C) as indicated. Proteins were incubated for 10 min at RT with the stated compound where applicable, before the reaction was initiated with the addition of 10 nM DNA substrate. […] Fluorescence spectra were measured every 140 s, for 35 min, at 37 °C. The fluorescence intensity of each well was plotted against compound concentration and fitted using a log (inhibitor) response curve using GraphPad Prism software (GraphPad Software, Inc., La Jolla, CA, USA).

[2] = molecular target: T2, SNM1B (Homo sapiens, UniProt Q9H816); test: gel-based nuclease assay, SNM1B; type: biochemical; conditions: 1 nM SNM1B
T2 construct: for the MBL and β-CASP domains of SNM1B (aa 1–335) into baculoviral expression vectors pFB-CT10HF-LIC; made in house; host or cells: Sf9 insect cells (baculovirus)
T2 sequence (Q9H816 1-335): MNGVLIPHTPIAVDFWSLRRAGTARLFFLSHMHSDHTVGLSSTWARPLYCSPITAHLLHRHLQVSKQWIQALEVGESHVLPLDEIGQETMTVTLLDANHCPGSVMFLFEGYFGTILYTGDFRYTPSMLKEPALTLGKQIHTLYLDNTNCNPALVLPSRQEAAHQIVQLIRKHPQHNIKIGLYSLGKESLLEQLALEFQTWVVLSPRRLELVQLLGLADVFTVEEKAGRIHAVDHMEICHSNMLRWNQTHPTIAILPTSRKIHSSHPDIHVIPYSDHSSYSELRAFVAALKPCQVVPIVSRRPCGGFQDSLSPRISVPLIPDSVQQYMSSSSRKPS
Source text: (§2) To validate the inhibition of SNM1A, SNM1B, and SNM1C observed in the fluorescence-based screening assays, we then performed gel-based assays using 3′ terminally-labelled oligonucleotide substrates that enable both quantitative and qualitative (visual) assessment of the pattern of inhibition, for a subset of compounds. Importantly, whereas the fluorescence-based assay measures a single hydrolytic event at the substrate terminus, the gel-based nuclease assay informs on the pattern of digestion of the entire 51-mer substrate DNA over time.
(§3) Standard exonuclease assays were carried out in a 10 μL final volume containing 20 mM HEPES-KOH, pH 7.5, 50 mM KCl, 0.5 mM TCEP, 10 mM MgCl2, 0.05% (v/v) Triton X-100, 5% (v/v) glycerol, and SNM1 proteins as indicated. Inhibitors were dissolved in DMSO and diluted immediately prior to the reaction in the above buffer. Inhibitors were serially diluted two-fold from 100 μM. The DMSO concentration was kept constant at 0.1% (v/v) in the final reaction mixture. Inhibitors were incubated with the indicated SNM1 enzyme for 10 minutes at room temperature; reactions were initiated by addition of 10 nM DNA substrate and incubated at 37 °C for 20 min. Reactions were quenched by addition of 5 μL stop solution (95% formamide, 10 mM EDTA, 0.25% (v/v) xylene cyanol, 0.25% (v/v) bromophenol blue) and heated at 95 °C for 3 min. Reactions were analysed by 20% denaturing polyacrylamide gel electrophoresis solution of 19 : 1 acrylamide:bis-acrylamide, BioRad and 7 M urea (Sigma Aldrich) in 1 × TBE (Tris-borate EDTA) buffer. Electrophoresis was carried out at 525 V for 75 minutes; gels were subsequently fixed for 60 minutes in a 50% (v/v) methanol, 10% (v/v) acetic acid solution, and dried at 80 °C for two hours under vacuum. Dried gels were exposed to a Kodak Phosphor imager screen and scanned using a Typhoon 9500 instrument (GE Healthcare), scanned images were quantified using ImageJ.
Suppl. Figure 10. Increasing concentrations (as indicated, in μM) of compounds incubated with 1 nM SNM1B or 2.5 nM SNM1C (room temperature, 10 min), before initiating nuclease reaction by addition of ssDNA (37 °C, 20 min). Products were analysed by 20% denaturing PAGE. Gels are representative versions from a minimum of three independent experimental repeats.
(1 picture or pasted object on this page, not shown here)

[3] = molecular target: T1, SNM1A; test: gel-based nuclease assay, SNM1A; type: biochemical; design: DNA encoding for the MBL and β-CASP domains of SNM1A (aa 676–1040) was cloned into the baculovirus transfer vector pFB-LIC-Bse; inferred from vector pFB-LIC-Bse and the IMAC purification; made in house; host or cells: Sf9 insect cells (baculovirus); conditions: 0.5 nM SNM1A
Source text: as §2, §3

[4] = molecular target: T3, SNM1C (Homo sapiens, UniProt Q96SD1); test: real-time fluorescence-based nuclease assay, SNM1C; type: biochemical
T3 construct: for the MBL and β-CASP domains of SNM1C (aa 1–362) into the baculovirus expression vector pBF-6HZB; made in house; host or cells: Sf9 insect cells (baculovirus)
T3 sequence (Q96SD1 1-362): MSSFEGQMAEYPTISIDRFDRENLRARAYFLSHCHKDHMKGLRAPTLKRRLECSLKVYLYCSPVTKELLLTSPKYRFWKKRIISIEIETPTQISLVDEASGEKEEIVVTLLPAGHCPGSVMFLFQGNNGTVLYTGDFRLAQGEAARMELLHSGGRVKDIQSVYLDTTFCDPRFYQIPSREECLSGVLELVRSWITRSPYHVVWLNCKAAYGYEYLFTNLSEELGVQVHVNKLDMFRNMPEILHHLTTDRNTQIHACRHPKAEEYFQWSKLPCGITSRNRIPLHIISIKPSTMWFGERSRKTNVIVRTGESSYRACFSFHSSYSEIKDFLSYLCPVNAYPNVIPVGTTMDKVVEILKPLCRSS
Source text: There is structural similarity between SNM1A, SNM1B, and SNM1C and major mechanistic features are likely conserved between the three nucleases. We therefore tested (13) and other hydroxamic acid analogues for inhibition of SNM1B and SNM1C. […] Note that the substrate utilised for the high-throughput fluorescence based and subsequent SNM1A and SNM1B assays differed slightly for SNM1C reflecting its (primarily) endonucleolytic, rather than exonucleolytic, activity (ESI Fig. 9 ^†).
as §1

[5] = solubility; type: physicochemical
[6] = tested on: U2OS (osteosarcoma) cells; test: clonogenic survival assay, U2OS cells; type: cell-based, human; conditions: for cell death as single agent: U2OS, 50 μM compound
Description: Clonogenic assays were performed in 10 cm tissue culture dishes (for RPE-1 cells, U2OS cells and derived clones). Cells (1000 per dish) were seeded in complete media (10 mL) and allowed to attach overnight, then treated with cisplatin or cisplatin plus inhibitor for the times stated. Following treatments, cells were allowed to grow and form colonies for 10 days. Colonies formed were stained with Coomassie R250 (Sigma) and counted on a COLCount Colony Counter (Oxford Optronix). All experiments represent the mean (±SEM) of at least three biological repeats of duplicate dishes/flasks for each treatment.

[7] = molecular target: T3, SNM1C; test: gel-based nuclease assay, SNM1C; type: biochemical
Source text: as §2, §3
Suppl. Figure 10. […] Products were analysed by 20% denaturing PAGE. […]

[8] = real-time fluorescence-based nuclease assay, resynthesised compounds

| Compound | IC50 [1, 8] | other results |
| --- | --- | --- |
| C=CCNC(=O)c1nc(N[C@@H](C)C(=O)NO)c2ccccc2n1 [compound 20] | 84 µM | decrease in SNM1A potency compared to 13 ([1]; fluorescence-based assay): 100 fold; inhibition of SNM1B in gel-based assay [2]: good inhibition; inhibition of SNM1A in gel-based assay [3]: good inhibition |
| AZ1353160 [compound 4, reference compound] |  | SNM1A IC50 [1, 8]: an IC50 value could not be calculated |
| C[C@H](Nc1nc(NCc2ccccc2)nc2ccc(Cl)cc12)C(=O)NO [compound 16] | 34 µM | IC50 ([4]; real-time fluorescence-based nuclease assay): 1.1 µM |
| C=CCNc1nc(NCC(=O)NO)c2cc(Cl)ccc2n1 [compound 11] | 17 µM |  |
| C=CCNc1nc(NC(CC(C)C)C(=O)NO)c2cc(Cl)ccc2n1 (stereo not shown) [compound 10] | 33 µM | increase in SNM1A potency compared to K1 (6) ([1]; fluorescence-based assay): 3 fold |
| O=c1[nH]c2cnc3ccc(Cl)cc3c2[nH]c1=O [compound 2] | 2 µM | solubility [5]: poor solubility |
| C=CCNc1nc(N[C@H](CO)CC(C)C)c2cc(Cl)ccc2n1 [compound 9] | > 1000 µM |  |
| C=CCNc1nc(N[C@H](C)C(=O)NO)c2cc(Cl)ccc2n1 [compound 12] | 2.2 µM | effect on cisplatin cytotoxicity ([6]; U2OS wild-type, 50 μM compound 20 hours pre-treatment, 0–15 μM cisplatin): potentiation of cisplatin cytotoxicity; cell death as single agent [6]: ≤ 10%; inhibition of SNM1B in gel-based assay [2]: good inhibition; inhibition of SNM1A in gel-based assay [3]: good inhibition |
| COc1cc2c3c(cccc3c1)C(=O)N(O)C2=O [compound 3] | 2.9 µM | solubility [5]: poor solubility |
| CCOc1nc(N[C@@H](C)C(=O)NO)c2cc(Cl)ccc2n1 [compound 21] | 67 µM | concentration giving complete inhibition of SNM1C digestion [7]: ~6 µM; inhibition of SNM1C in gel-based assay ([7]; 2.5 nM SNM1C): clearly inhibits the nuclease activity of SNM1C |
| C=CCNc1nc(N[C@@H](C)C(=O)NO)c2cc(Cl)ccc2n1 [compound 13] | 0.8 µM | cell death as single agent [6]: ≤ 10%; inhibition of SNM1B in gel-based assay [2]: good inhibition; inhibition of SNM1A in gel-based assay [3]: good inhibition |
| C=CCNc1nc(N[C@@H](CC(C)C)C(=O)OC)c2cc(Cl)ccc2n1 [compound 7] | > 1000 µM |  |

More lines, main results first:

| IC50 [1, 8] | Compound | other results |
| --- | --- | --- |
| 20 µM | CCCN(C)c1nc(N[C@@H](C)C(=O)NO)c2cc(Cl)ccc2n1 [compound 17] |  |
| > 1000 µM | C=CCNc1nc(N[C@@H](CC(C)C)C(N)=O)c2cc(Cl)ccc2n1 [compound 8] |  |
| 13 µM | C[C@H](Nc1nc(N(C)C)nc2ccc(F)cc12)C(=O)NO [compound 23] |  |
| 11 µM | C[C@H](Nc1nc(N(C)C)nc2ccc(Cl)cc12)C(=O)NO [compound 22] |  |
| > 100 µM | CCN(CC)c1nc(N[C@@H](C)C(=O)NO)c2cc(Cl)ccc2n1 [compound 18] | selectivity among SNM1A, SNM1B, SNM1C ([4]; fluorescence-based assays): only potent against SNM1C |
| 42 µM | C[C@H](Nc1nc(N2CCOCC2)nc2ccc(Cl)cc12)C(=O)NO [compound 15] |  |
| 4.1 µM | C=CCNc1nc(NC(CO)C(=O)NO)c2cc(Cl)ccc2n1 (stereo not shown) [compound 14] |  |
| 74 µM | COc1ccc2nc(N(C)C)nc(N[C@@H](C)C(=O)NO)c2c1 [compound 24] |  |
